# Reference: US5032597A, “Method of using phenylquinolinecarboxylic acids and derivatives for lymthoid leukemia treatment in a mammal” (priority 1987, dated 1991)
# “And” between values parts separate entries of the source, which are not always exact repeats. Equal values may be shown once. Read-outs that look alike come from different tables or passages of the source.
# Experiments:
# L1210 leukemia = assay: Lymphoid Leukemia L1210, survival of tumored mice; format: in vivo, CD2F1 mice; conditions: for response vs control in vivo at 25 mg/kg: 25 mg/kg i.p.; for response vs control in vivo at 200 mg/kg: 200 mg/kg i.p.; for response vs control in vivo at 300 mg/kg: 300 mg/kg i.p.; for response vs control in vivo at 100 mg/kg: 100 mg/kg i.p.
# Protocol: The efficacy of the compounds of this invention against the transplanted mouse tumors was evaluated in test systems currently in use at the National Cancer Institute for the detection and assessment of anticancer activity. […] J. Cancer, 17, 129-142, (1981); Venditti, J. M., Seminars in Oncology, 8 (4) (1981); Goldin, A. and J. M. Venditti, in Recent Results in Cancer Research, 70, S. K. Carter and Y. Sakurai, Eds., Springer-Verlag, Berlin/Heidelberg, 1980].
# The animals used in this test were CD2 F1 mice, all males weighing a minimum of 18 g and all within a 4 g weight range at the start of the test. The test group consisted of six mice. The tumor was implanted in each of the test mice by the intraperitoneal injection of 0.1 ml of diluted ascitic fluid containing 10^5 cells drawn from a mouse with L1210 leukemia. The test compounds were suspended in hydroxypropylcellulose or saline with Tween® 80 surfactant or dissolved in saline and injected intraperitoneally, at various doses, once daily for nine consecutive days starting on day one relative to the day of tumor inoculation (day 0). The control mice received injections of saline or hydroxypropylcellulose vehicle only. The mice were weighed and survivors were recorded on a regular basis for 30 days. The median survival time and the ratio of the median survival time for the treated (T) and control (C) mice was calculated. […] Drug effectiveness was assessed on the basis of the survival time. Results were expressed as a percentage of the control survival time (Median Survival Time: T/C ×100%). The criterion for effectiveness was determined by: T/C×100≥125 percent.
# [1] = tested on: human colon carcinoma cells HCT-15; assay: Human colon tumor test in vitro, HCT-15 cell growth inhibition; format: cell-based; conditions: HCT-15 cells, compound day 1 to day 4; for in vitro HCT-15 ID50 (50 percent inhibition of number of doublings): 4320 min; for IC50: Homo sapiens, HCT-15, 72 h, read-out: in vitro HCT-15 ID50 (50 percent inhibition of number of doublings)
# Protocol: The compound of this invention were also tested for their ability to inhibit the growth of human colon carcinoma cells in vitro.
# The human colon carcinoma cells, designated HCT-15, were derived from a specimen of an adenocarcinoma of human colon removed during surgery. The cells were grown in Roswell Park Medical Institute (RPMI) Medium 1640 supplemented with 10% heat inactivated fetal calf serum, penicillin (100 units/ml), streptomycin (100 μg/ml), gentamicin (20 μg/ml), fungizone (25 μg/ml), 0.075 percent sodium bicarbonate, […] 4-(2-hydroxyethyl)-1-piperazineethanesulfonic acid and […] N-tris(hydroxymethyl)methylglycine. […] On day 1 cells from sample dishes were harvested using trypsin (0.25%) treatment and counted with a hemocytometer to determine the number of cells per dish at the time of the addition of the compounds. Compounds of this invention were added in varying concentrations to other cultures. On day 4, treated and control cultures were harvested by trypsin treatment and the number of cells was determined. The number of doublings for the control cells was determined from the cell numbers on days 1 and 4. The ID50, the concentration of compound required to inhibit by 50 percent the number of doublings, was then calculated from the dose-response curve in which cell numbers were plotted on log-log paper against compound concentrations in micrograms per ml.
# [2] = Mus musculus, L1210, ip, 720 h, nonoptimal Q1DX9 instead of Q3DX9, read-out: L1210 Leukemia % T/C (median survival time)
# [3] = Mus musculus, L1210, ip, 720 h, read-out: L1210 Leukemia % T/C (median survival time)
# [4] = Mus musculus, L1210, ip, 720 h, 50 mg/kg i.p., nonoptimal Q1DX9 instead of Q3DX9, read-out: L1210 Leukemia % T/C (median survival time)
# [5] = Mus musculus, L1210, ip, 720 h, 50 mg/kg i.p., read-out: L1210 Leukemia % T/C (median survival time)
smiles,measurement,setting,value
Cc1c(-c2ccc(Sc3ccccc3)cc2)nc2ccc(Cl)cc2c1C(=O)O [Example 173],response vs control in vivo at 25 mg/kg,L1210 leukemia; [2],122%
same,in vitro HCT-15 ID50 (50 percent inhibition of number of doublings),[1],< 0.50 µg/mL
CCCCCCCCCCc1ccc(-c2nc3ccc(F)cc3c(C(=O)O)c2C)cc1 [Example 7],response vs control in vivo at 200 mg/kg,L1210 leukemia; [3],136%
same,in vitro HCT-15 ID50 (50 percent inhibition of number of doublings),[1],2.30 µg/mL
O=C(O)c1cc(-c2ccc(C3CCCCC3)cc2)nc2ccc(F)cc12 [Example 5],response vs control in vivo at 400 mg/kg,"L1210 leukemia; Mus musculus, L1210, ip, 720 h, 400 mg/kg i.p., read-out: L1210 Leukemia % T/C (median survival time)",141%
same,IC50,[1],0.02 µg/mL
Cc1c(-c2ccc(Oc3ccccc3)cc2)nc2ccc(Cl)cc2c1C(=O)O [Example 20],response vs control in vivo at 200 mg/kg,L1210 leukemia; [3],211%
same,IC50,[1],< 0.5 µg/mL
Cc1c(-c2ccc(-c3ccccc3)cc2)nc2ccc(C(F)(F)F)cc2c1C(=O)O [Example 56],response vs control in vivo at 75 mg/kg,"L1210 leukemia; Mus musculus, L1210, ip, 720 h, 75 mg/kg i.p., read-out: L1210 Leukemia % T/C (median survival time)",176%
same,IC50,[1],< 0.5 µg/mL
Cc1ccc(-c2ccc(-c3nc4ccc(F)cc4c(C(=O)O)c3C)cc2)cc1C [Example 39],IC50,[1],< 0.1 µg/mL
CCC(C)c1ccc(-c2nc3ccc(F)cc3c(C(=O)O)c2C)cc1 (stereo not drawn) [Example 9],response vs control in vivo at 200 mg/kg,L1210 leukemia; [3],127%
same,in vitro HCT-15 ID50 (50 percent inhibition of number of doublings),[1],0.07 µg/mL
Cc1c(-c2ccc(SCc3ccccc3)cc2)nc2ccc(F)cc2c1C(=O)O [Example 26],response vs control in vivo at 300 mg/kg,L1210 leukemia; [3],136%
same,IC50,[1],< 0.5 µg/mL
Cc1c(-c2ccc(-c3ccccc3F)cc2)nc2ccc(F)cc2c1C(=O)O [Example 176],response vs control in vivo at 37 mg/kg,"L1210 leukemia; Mus musculus, L1210, ip, 720 h, 37 mg/kg i.p., read-out: L1210 Leukemia % T/C (median survival time)",175%
same,in vitro HCT-15 ID50 (50 percent inhibition of number of doublings),[1],< 0.50 µg/mL and 0.41 µg/mL
Cc1c(-c2ccc(OCc3ccccc3)cc2)nc2ccc(F)cc2c1C(=O)O [Example 106],response vs control in vivo at 25 mg/kg,L1210 leukemia; [2],107%
same,in vitro HCT-15 ID50 (50 percent inhibition of number of doublings),[1],1.20 µg/mL
CCc1ccc2nc(-c3ccc(-c4ccccc4)cc3)c(C)c(C(=O)O)c2c1 [Example 141],L1210 Leukemia % T/C (median survival time),L1210 leukemia; 75 mg/kg i.p.,139%
same,in vitro HCT-15 ID50 (50 percent inhibition of number of doublings),[1],< 0.50 µg/mL
Cc1c(-c2ccc(-c3ccc(F)cc3)cc2)nc2cc(Cl)c(F)cc2c1C(=O)O [Example 54],response vs control in vivo at 300 mg/kg,L1210 leukemia; [3],125%
same,IC50,[1],< 0.5 µg/mL
Cc1c(-c2ccc(Sc3ccccc3)cc2)nc2ccc(Cl)cc2c1C(=O)O [Example 111],response vs control in vivo at 25 mg/kg,L1210 leukemia; [3],125%
same,IC50,[1],< 0.5 µg/mL
Cc1c(-c2ccc(-c3ccccc3)cc2)nc2cc(Cl)c(Cl)cc2c1C(=O)O [Example 137],response vs control in vivo at 50 mg/kg,L1210 leukemia; [4],107%
same,in vitro HCT-15 ID50 (50 percent inhibition of number of doublings),[1],> 5.00 µg/mL
Cc1c(-c2ccc(-c3ccccc3)cc2)nc2cc(Cl)c(Cl)cc2c1C(=O)O [Example 47],IC50,[1],3.2 µg/mL
Cc1ccc(-c2ccc(-c3nc4ccc(F)cc4c(C(=O)O)c3C)cc2)cc1Cl [Example 38],response vs control in vivo at 200 mg/kg,L1210 leukemia; [3],238%
same,IC50,[1],> 1 µg/mL
Cc1c(-c2ccc(SC(C)C)cc2)nc2ccc(F)cc2c1C(=O)O [Example 103],response vs control in vivo at 200 mg/kg,L1210 leukemia; [2],108%
same,in vitro HCT-15 ID50 (50 percent inhibition of number of doublings),[1],0.17 µg/mL
O=C(O)c1cc(-c2ccc(C3CCCCC3)cc2)nc2ccc(F)cc12 [Example 95],response vs control in vivo at 100 mg/kg,L1210 leukemia; [2],108%
same,in vitro HCT-15 ID50 (50 percent inhibition of number of doublings),[1],0.04 µg/mL
Cc1c(-c2ccc(-c3ccccc3)cc2)nc2cccc(Cl)c2c1C(=O)O [Example 80],IC50,[1],< 0.5 µg/mL
"Cc1c(-c2ccc(-c3ccccc3F)cc2)nc2ccc(F)cc2c1C(=O)OCCN(C)C [Example 197, 6-Fluoro-2-(2'-fluoro-1,1'-biphenyl-4-yl)-3-methyl-[(2dimethylamino)ethyl]ester-4-quinolinecarboxylic acid]",response vs control in vivo at 50 mg/kg,L1210 leukemia; [5],179%
same,in vitro HCT-15 ID50 (50 percent inhibition of number of doublings),[1],< 0.01 µg/mL
Cc1c(-c2ccc(-c3ccccc3F)cc2)nc2ccc(Cl)cc2c1C(=O)O [Example 70],IC50,[1],< 0.1 µg/mL
Cc1c(-c2ccc(-c3ccccc3)cc2F)nc2ccc(F)cc2c1C(=O)O [Example 208],IC50,[1],< 0.001 µg/mL
Cc1ccc2nc(-c3ccc(-c4ccccc4)cc3)c(C)c(C(=O)O)c2c1 [Example 104],in vitro HCT-15 ID50 (50 percent inhibition of number of doublings),[1],0.22 µg/mL
Cc1c(-c2ccc(C3CCCCC3)cc2)nc2ccc(F)cc2c1C(=O)O [Example 169],in vitro HCT-15 ID50 (50 percent inhibition of number of doublings),[1],0.04 µg/mL
"Cc1c(-c2ccc(Oc3ccc([N+](=O)[O-])cc3)cc2)nc2ccc(F)cc2c1C(=O)O [Example 86, 6-Fluoro-3-methyl-2-(4-nitrophenoxyphenyl)-4-quinolinecarboxylic acid]",response vs control in vivo at 175 mg/kg,"L1210 leukemia; Mus musculus, L1210, ip, 720 h, 175 mg/kg i.p., read-out: L1210 Leukemia % T/C (median survival time)",153%
CCc1c(-c2ccc(C3CCCCC3)cc2)nc2ccc(F)cc2c1C(=O)O [Example 100],response vs control in vivo at 50 mg/kg,L1210 leukemia; [4],103%
Cc1c(-c2ccc(-c3ccccc3F)cc2)nc2ccc(F)cc2c1C(=O)OCCCN(C)C [Example 199],response vs control in vivo at 25 mg/kg,L1210 leukemia; [3],153%
CCN(CC)CCOC(=O)c1c(C)c(-c2ccc(-c3ccccc3F)cc2)nc2ccc(F)cc12 [Example 202],response vs control in vivo at 59 mg/kg,"L1210 leukemia; Mus musculus, L1210, ip, 720 h, 59 mg/kg i.p., read-out: L1210 Leukemia % T/C (median survival time)",164%
Cc1ccc(-c2ccc(-c3nc4ccc(F)cc4c(C(=O)O)c3C)cc2)cc1 [Example 120],response vs control in vivo at 100 mg/kg,L1210 leukemia; [3],132%
Cc1c(-c2ccc(-c3ccccc3)cc2)nc2ccc(Br)cc2c1C(=O)O [Example 142],response vs control in vivo at 37.5 mg/kg,"L1210 leukemia; Mus musculus, L1210, ip, 720 h, 37.5 mg/kg i.p., read-out: L1210 Leukemia % T/C (median survival time)",169%
Cc1c(-c2ccc(-c3ccc(F)cc3)cc2)nc2ccc(Cl)cc2c1C(=O)O [Example 23],response vs control in vivo at 25 mg/kg,L1210 leukemia; [3],159%
Cc1c(-c2ccc(C3CCCCC3)cc2)nc2ccc(C(F)(F)F)cc2c1C(=O)O [Example 48],IC50,[1],0.1 µg/mL
Cc1c(-c2ccc(Oc3ccc(F)cc3)cc2)nc2ccc(F)cc2c1C(=O)O [Example 35],L1210 Leukemia % T/C (median survival time),L1210 leukemia; 150 mg/kg i.p.,204%
Cc1c(-c2ccc(C3CCCCC3)cc2)nc2c(Br)cc(Br)cc2c1C(=O)O [Example 46],IC50,[1],0.42 µg/mL
Cc1c(-c2ccc(-c3ccccc3F)cc2)nc2ccc(F)c(Cl)c2c1C(=O)O [Example 84],IC50,[1],< 0.1 µg/mL
Cc1c(-c2ccc(-c3ccccc3)cc2)nc2cccc(Cl)c2c1C(=O)O [Example 163],response vs control in vivo at 43.8 mg/kg,"L1210 leukemia; Mus musculus, L1210, ip, 720 h, 43.8 mg/kg i.p., read-out: L1210 Leukemia % T/C (median survival time)",180%
COc1c(-c2ccc(-c3ccccc3)cc2)nc2ccc(F)cc2c1C(=O)O [Example 127],L1210 Leukemia % T/C (median survival time),L1210 leukemia; 50 mg/kg i.p.,193%
Cc1c(-c2ccc(-c3ccccc3)cc2)nc2cc(Cl)cc(Cl)c2c1C(=O)O [Example 165],response vs control in vivo at 50 mg/kg,L1210 leukemia; [5],128%
CCc1cccc(-c2ccc(-c3nc4ccc(F)cc4c(C(=O)O)c3C)cc2)c1 [Example 41],IC50,[1],0.0079 µg/mL
Cc1c(-c2ccc(Sc3ccccc3)cc2)nc2ccc(Cl)cc2c1C(=O)O [Example 21],response vs control in vivo at 200 mg/kg,L1210 leukemia; [3],160%
